The test system of experiment [1] is E. coli PCN033.
Experiment [2] deals with E. coli RS218.
Experiment [3] deals with E. coli RS218. Nature of the experiment: microbe, parasite or virus in culture. The note with it: Escherichia coli; for MBC: RS218, read-out: MBC, E. coli RS218, colony counting on LB agar from wells without visible growth; for MIC: RS218, read-out: MIC, E. coli RS218, MHB microdilution, 16-20 h at 37 °C, triplicate, lowest concentration inhibiting visual growth.
In the next experiment the test system is PCN033 and RS218. Nature of the experiment: MIC and MBC, summary over both strains. It counts as cell-based. As to conditions: Escherichia coli; for MBC: read-out: MBCs against PCN033 and RS218; for MIC: read-out: MICs against PCN033 and RS218.
In experiment [4] the test system is E. coli PCN033. Description: microbe, parasite or virus in culture. The note with it: Escherichia coli; for MBC: PCN033, read-out: MBC, E. coli PCN033, colony counting on LB agar from wells without visible growth; for MIC: PCN033, read-out: MIC, E. coli PCN033, MHB microdilution, 16-20 h at 37 °C, triplicate, lowest concentration inhibiting visual growth.
The subject of experiment [5] is PCN033. Nature of the experiment: Time-kill curve assay. The note with it: sub-MBC: PMAP-36 1/4 MBC, tetracycline 1/16 MBC, gentamicin 1/8 MBC, 37 °C. It counts as cell-based, Escherichia coli.
Experiment [6] concerns E. coli PCN033. Description: Checkerboard assay, fractional bactericidal concentration index. Type of experiment: cell-based, Escherichia coli. The note with it: PMAP-36 with tetracycline, against multidrug-resistant porcine ExPEC.
Experiment [7] relates to PCN033. Nature of the experiment: Scanning electron microscopy of treated bacteria. Type of experiment: cell-based, Escherichia coli. As to conditions: tetracycline 1/16 MBC, PMAP-36 1/4 MBC, alone or combined, MHB 37 °C.
The subject of experiment [8] is PCN033. Type of experiment: cell-based, Escherichia coli.
Experiment [9] concerns PCN033. Nature of the experiment: Mouse model of systemic infection with PCN033. Type of experiment: in vivo. The note with it: C57BL/6 mice, 1 × 10^7 CFU PCN033 i.p., 30 mg/kg tetracycline i.p. 2 h after infection, n = 10/group.
Description: Female C57BL/6 mice (6–8 weeks old) were obtained from Chongqing Lepitt Biotechnology Co., Ltd. This study was approved by the Institutional Animal Care and Use Committee (IACUC) of Southwest University, Chongqing, China (IACUC-20221022-18). […] Afterwards, different assays were performed as described below.
For the generation of survival curves, mice (n = 10/group) were monitored every 6 h until 72 h post-infection. Statistical analysis was conducted by the log rank (Mantel‒Cox) test in GraphPad Prism 8.0 software.
Mice (n = 5/group) were euthanized at 12 h post-infection. Then, organs (spleen, liver, and lung), blood and peritoneal lavage fluid (PLF) were collected and homogenized to determine the bacterial load via serial tenfold dilutions, plating on LB agar plates, and incubation at 37 °C overnight.
For histopathological observation, mice (n = 3/group) were euthanized at 12 h post-infection. Then, the lung tissues were fixed with 10% formaldehyde for over one week and embedded in paraffin for histological analysis.
For cytokine detection, the mice (n = 3/group) were euthanized at 12 h post-infection. Then, the expression of inflammatory cytokines (IL-1α, IL-1β, IL-6, IL-12 and TNF-α) in the lungs, liver, spleen, and PLF and the expression of chemokines (CXCL1 and CXCL2) in the PLF were determined using ELISA kits. […]
For experiment [10], the system named is monocytes and macrophages in the PLF. Nature of the experiment: Flow cytometry of immune cells in peritoneal lavage fluid of infected mice. It counts as in vivo, mouse. As to conditions: 12 h post-infection, flow cytometry F4/80 and Gr-1, n = 3/group.
Description: Mice were infected and treated with the test compounds as described above. After 12 h of infection, PLF was collected with 2 mL of sterile PBS, and the cells were centrifuged at 1800 rpm for 3 min. Then, the cells were blocked with 1 mL of 2% bovine serum albumin (BSA) in PBS for 30 min. An anti-mouse CD16/32 antibody (1:50) (BioLegend, CA, USA) was used to block nonspecific antibody binding in 0.5% BSA buffer for 30 min at 4 °C. Next, the cells were stained with PE-conjugated anti-mouse F4/80 antibody (1:50) (BioLegend, CA, USA) and FITC-conjugated anti-mouse Ly-6G/Ly-6C (Gr-1) antibody (1:200) (BioLegend, CA, USA) in 0.5% BSA for 30 min at 4 °C. Afterwards, the cells were washed twice with 150 μL of 2% BSA and analysed using flow cytometry.
Where [11] appears, read: MHB microdilution, 16-20 h at 37 °C, triplicate, lowest concentration inhibiting visual growth.
Setting [12] is: colony counting on LB agar from wells without visible growth.

≈ marks a conversion by molar mass, not a printed value. Where two headings read alike, the source gives them in different places. No end group written: not given here.

As for `CC1(C)S[C@@H]2[C@H](NC(=O)[C@H](N)c3ccccc3)C(=O)N2[C@H]1C(=O)O` [Ampicillin, ampicillin], the “MIC, E. coli PCN033” value was 20,480 μM in the experiment on E. coli PCN033 [1] (setting [11]) and “greater than 160 μM” against E. coli PCN033 [1] (MHB microdilution, 16-20 h at 37 °C, triplicate, lowest concentration inhibiting visual growth, listed as ampicillin). In addition, the “MBC, E. coli PCN033” value against E. coli PCN033 [1] (setting [12]) is 40,960 μM; with E. coli PCN033 [1] (colony counting on LB agar from wells without visible growth, listed as ampicillin), “greater than 1280 μM”. Besides, the “MIC, E. coli RS218” value with E. coli RS218 [2] (setting [11]) was found to be 5 µM (≈ 1.75 µg/mL). In addition, the “MBC, E. coli RS218” value with E. coli RS218 [2] (setting [12]) came to 10 µM (≈ 3.49 µg/mL). Also, the MBC with E. coli RS218 [3] was in the range of 5 to 20 µM (≈ 1.75 to 6.99 µg/mL). In addition, the MIC with E. coli RS218 [3] lay within 2.5 to 10 µM (≈ 0.874 to 3.49 µg/mL).

Consider `CO/N=C(\C(=O)N[C@@H]1C(=O)N2C(C(=O)O)=C(COC(C)=O)CS[C@H]12)c1csc(N)n1` [Cefotaxime, cefotaxime], for which the MBC is less than 0.625 µM with PCN033 and RS218; less than 0.625 µM in the experiment with E. coli PCN033 [4]; less than 0.625 µM in the experiment with E. coli RS218 [3]. Also, the MIC in the experiment with PCN033 and RS218 is less than 0.625 µM; with E. coli PCN033 [4], less than 0.625 µM; in the experiment on E. coli RS218 [3] it was less than 0.625 µM.

For the compound `CNC(C)C1CCC(N)C(OC2C(N)CC(N)C(OC3OCC(C)(O)C(NC)C3O)C2O)O1` (stereo not shown) [Gentamicin, gentamicin], in the experiment on PCN033 [5], the “bactericidal activity within 120 min, agent alone” value is “did not show obvious bactericidal activity”. Besides, the “MIC, E. coli PCN033” value against E. coli PCN033 [1] (setting [11]) amounted to 320 µM (≈ 153 µg/mL). Further, the “MBC, E. coli PCN033” value against E. coli PCN033 [1] (setting [12]) turned out to be 1280 µM (≈ 611 µg/mL). Moreover, the “MIC, E. coli RS218” value against E. coli RS218 [2] (setting [11]) was 2.5 µM (≈ 1.19 µg/mL). In the experiment on E. coli RS218 [2] (setting [12]), the “MBC, E. coli RS218” value amounted to 5 µM (≈ 2.39 µg/mL). In addition, in the experiment with E. coli PCN033 [4], the MBC is greater than 1280 µM and the MIC was greater than 160 µM. Also, in the experiment with E. coli RS218 [3], the MBC was in the range of 5 to 20 µM (≈ 2.39 to 9.55 µg/mL) and the MIC lay in the range of 2.5 to 10 µM (≈ 1.19 to 4.78 µg/mL).

For `Cc1onc(-c2ccccc2)c1C(=O)N[C@@H]1C(=O)N2[C@@H]1SC(C)(C)[C@@H]2C(=O)O` [Oxacillin, oxacillin], the “MIC, E. coli PCN033” value against E. coli PCN033 [1] (setting [11]) worked out at 5120 µM (≈ 2060 µg/mL). Further, the “MIC, E. coli PCN033” value in the experiment with E. coli PCN033 [1] (MHB microdilution, 16-20 h at 37 °C, triplicate, lowest concentration inhibiting visual growth, listed as oxacillin) is on record as “greater than 160 μM”. Also, the “MBC, E. coli PCN033” value in the experiment with E. coli PCN033 [1] (setting [12]) is on record as 10,240 μM. Also, in the experiment on E. coli RS218 [3], the MBC is 1280 µM (≈ 514 µg/mL) and the MIC came to 320 µM (≈ 128 µg/mL).

In the case of `[H]/N=C(/N)N[C@H]1[C@H](O)[C@@H](O)[C@H](O[C@@H]2O[C@@H](C)[C@](O)(C=O)[C@H]2O[C@@H]2O[C@@H](CO)[C@H](O)[C@@H](O)[C@@H]2NC)[C@@H](N/C(N)=N\[H])[C@@H]1O` [Streptomycin, streptomycin], the MIC in the experiment with E. coli PCN033 [4] was greater than 160 µM. In the experiment on E. coli RS218 [3], the MBC was greater than 41000 µM and the MIC came to 41000 µM (≈ 23800 µg/mL).

Turning to `CN(C)[C@@H]1C(O)=C(C(N)=O)C(=O)[C@@]2(O)C(O)=C3C(=O)c4c(O)cccc4[C@@](C)(O)[C@H]3C[C@@H]12` [Tetracycline, tetracycline], the MBC with PCN033 and RS218 was 5 to 320 µM (≈ 2.22 to 142 µg/mL); in the experiment on E. coli PCN033 [4], 160 µM (≈ 71.1 µg/mL); in the experiment with E. coli RS218 [3], 5 µM (≈ 2.22 µg/mL). For the same compound, the MIC in the experiment on PCN033 and RS218 is 2.5 to 320 µM (≈ 1.11 to 142 µg/mL); in the experiment with E. coli PCN033 [4] it was 160 µM (≈ 71.1 µg/mL); in the experiment on E. coli RS218 [3], 2.5 µM (≈ 1.11 µg/mL). The “decrease of MBC when used in combination” value with E. coli PCN033 [6] was determined as 16 fold. The “cell morphology under SEM” value with PCN033 [7] is given as “slight cell shrinkage”. In the experiment on PCN033 [8], the “increase of the MIC of tetracycline, 10th generation” value came out at 1.5 fold. Besides, the “change of the MIC of tetracycline after 30 generations” value in the experiment with PCN033 [8] (PCN033 grown at sub-MIC: tetracycline 1/4 MIC, PMAP-36 1/4 MIC, or 1/8 MIC + 1/8 MIC, normalised to first generation) was “threefold”. The “time within which all treated mice died” value with PCN033 [9] was no more than 24 h. Further, in [10], the “number of monocytes and macrophages in the PLF” value was “only slightly increased”.

Take “GLLRKGGEKIGEKLKKIGQKIKNFFQKLVPQPEQ [CRAMP]”: the “MIC, E. coli PCN033” value in the experiment on E. coli PCN033 [1] (setting [11]) amounted to 10 µM. Moreover, the “MBC, E. coli PCN033” value in the experiment on E. coli PCN033 [1] (setting [12]) was 20 µM. In the experiment on E. coli RS218 [2] (setting [11]), the “MIC, E. coli RS218” value turned out to be 5 µM. The “MBC, E. coli RS218” value against E. coli RS218 [2] (setting [12]) amounted to 20 µM.

For “GRFRRLRKKTRKRLKKIGKVLKWIPPIVGSIPLGCG [PMAP-36, porcine myeloid antimicrobial peptide 36]”, in the experiment with E. coli PCN033 [1] (PCN033), the “MBC, E. coli PCN033” value is 10 µM and the “MIC, E. coli PCN033” value is 2.5 µM. Further, in the experiment with E. coli RS218 [2] (RS218), the “MBC, E. coli RS218” value was 5 µM and the “MIC, E. coli RS218” value stood at 2.5 µM.

Turning to “PIRNWWIRIWEWLNGIRKRLRQRSPFYVRGHLNVTSTPQP [CATH-B1]”, in the experiment with E. coli PCN033 [1] (PCN033), the “MBC, E. coli PCN033” value was greater than 40 µM and the “MIC, E. coli PCN033” value was greater than 40 µM. Besides, in the experiment on E. coli RS218 [2] (RS218), the “MBC, E. coli RS218” value was greater than 40 µM and the “MIC, E. coli RS218” value was greater than 40 µM.

Turning to RFGRFLRKIRRFRPKVTITIQGSARF [CATH-2], in the experiment with E. coli PCN033 [1] (PCN033), the “MBC, E. coli PCN033” value turned out to be 20 µM and the “MIC, E. coli PCN033” value is 10 µM. For the same compound, in the experiment on E. coli RS218 [2] (RS218), the “MBC, E. coli RS218” value was 10 µM and the “MIC, E. coli RS218” value was 5 µM.

For “RRRPRPPYLPRPRPPPFFPPRLPPRIPPGFPPRFPPRFP [PR-39]”, in the experiment with E. coli PCN033 [1] (PCN033), the “MBC, E. coli PCN033” value was determined as 10 µM and the “MIC, E. coli PCN033” value turned out to be 5 µM. In the experiment with E. coli RS218 [2] (RS218), the “MBC, E. coli RS218” value is 5 µM and the “MIC, E. coli RS218” value was found to be 2.5 µM.

RVKRFWPLVPVAINTVAAGINLYKAIRRK [CATH-3]: in the experiment on E. coli PCN033 [1] (PCN033), the “MBC, E. coli PCN033” value came to 20 µM and the “MIC, E. coli PCN033” value was 10 µM. In the experiment on E. coli RS218 [2] (RS218), the “MBC, E. coli RS218” value worked out at 10 µM and the “MIC, E. coli RS218” value was 5 µM.

The values above are taken from paper PMC10960472 (Veterinary Research, 2024).
